According to patent US20260325685A1, “Radiopharmaceutical Compositions Targeting Carbonic Anhydrase IX and Uses Thereof” (RayzeBio, Inc., priority 2023, published 2026):
Where two headings read alike, the source gives them in different places. Values belong to the molecule of their own block, whether it stands above or below them.

Tests used:
human CA-IX = molecular target: T1, human CA-IX (Homo sapiens, UniProt Q16790); experiment: Surface Plasmon Resonance (SPR) binding kinetics to recombinant human CA-IX (Biacore 8K, single-cycle kinetics, 1:1 binding model)
T1 construct: purchased Acro CA9-H82E3
Procedure, shortened: (§1)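 Kinetics are measured at 25° C against streptavidin-captured CA-IX or CA-XII (1200-1800 RU) in PBS-P+ buffer, pH 7.4, containing 1% DMSO. Nine analyte concentrations span 100-0.39 nM, with 1200 s dissociation.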

human CA-XII = molecular target: T2, human CA-XII (Homo sapiens, UniProt O43570); experiment: Surface Plasmon Resonance (SPR) binding kinetics to recombinant human CA-XII (Biacore 8K, single-cycle kinetics, 1:1 binding model)
T2 construct: purchased Creative BioMart CA12-261H
Procedure, shortened: as §1

[1] = Chelated Metal: Lu-175; SPR, 25° C., pH 7.4; read-out: CAIX KD
[2] = Chelated Metal: Lu-175, 25° C., pH 7.4, read-out: CAXII KD
[3] = read-out: CAIX KD; Chelated Metal: Lu-175; SPR, 25° C., pH 7.4
[4] = read-out: CAXII KD, Chelated Metal: Lu-175, 25° C., pH 7.4

T2 sequence (O43570 25-354): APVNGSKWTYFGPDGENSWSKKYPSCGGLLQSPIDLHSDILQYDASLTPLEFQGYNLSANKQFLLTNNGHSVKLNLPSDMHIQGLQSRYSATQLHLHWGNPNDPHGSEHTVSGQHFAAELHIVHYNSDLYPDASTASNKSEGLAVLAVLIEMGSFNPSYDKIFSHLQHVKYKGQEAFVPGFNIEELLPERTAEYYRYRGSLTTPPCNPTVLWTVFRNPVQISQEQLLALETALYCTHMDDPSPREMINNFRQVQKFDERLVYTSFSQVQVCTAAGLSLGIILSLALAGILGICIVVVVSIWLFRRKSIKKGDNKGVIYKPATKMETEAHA

SMILES: Cc1cc(C(=O)Nc2nnc(S(N)(=O)=O)s2)ccc1-c1cn(CCNC(=O)C2(NC(=O)CNC(=O)C3(C(N)=O)CCN(C(=O)CCCC(C)(c4ccc(O)cc4)c4ccc(O)cc4)CC3)CCN(C(=O)CC[C@H](C(=O)O)N3CCN(CC(=O)O)CCN(CC(=O)O)CCN(CC(=O)O)CC3)CC2)nn1.[Lu+3] [Compound 127.7]
Kd (human CA-IX; [1]): < 1 nM
Kd (human CA-XII; [2]): > 10 nM

SMILES: NS(=O)(=O)c1nnc(NC(=O)C23CC(c4cn(CCNC(=O)[C@@H]5CN(C(=O)CN6CCN(CC(=O)O)CCN(CC(=O)O)CCN(CC(=O)O)CC6)CCN5C(=O)C[C@H](NC(=O)C[C@H](NC(=O)Cc5n[nH]c6ccc(F)cc56)C(=O)O)C(=O)O)nn4)(C2)C3)s1.[Lu+3] [Compound 109.11]
Kd (human CA-IX; [1]): < 1 nM
Kd (human CA-XII; [2]): 2.5 to 10 nM

SMILES: NS(=O)(=O)c1nnc(NC(=O)C23CC(c4cn(CCNC(=O)[C@@H]5CN(C(=O)CN6CCN(CC(=O)O)CCN(CC(=O)O)CCN(CC(=O)O)CC6)CCN5C(=O)C[C@H](NC(=O)C[C@H](NC(=O)c5cnc(C6CC6)nc5)C(=O)O)C(=O)O)nn4)(C2)C3)s1.[Lu+3] [Compound 109.23]
Kd (human CA-IX; [1]): 2.5 to 10 nM
Kd (human CA-XII; [2]): > 10 nM

SMILES: NS(=O)(=O)c1nnc(NC(=O)C23CC(c4cn(CCNC(=O)[C@@H]5CN(C(=O)CN6CCN(CC(=O)O)CCN(CC(=O)O)CCN(CC(=O)O)CC6)CCN5C(=O)CNC(=O)C5(C(=O)O)CCN(C(=O)c6ccc(C7CC7)nn6)CC5)nn4)(C2)C3)s1.[Lu+3] [Compound 112]
Kd (human CA-IX; [3]): 2.5 to 10 nM
Kd (human CA-XII; [4]): > 10 nM

SMILES: CC(CCCC(=O)N1CCC(C(N)=O)(C(=O)NCC(=O)N2CCN(C(=O)CCOCCOCCNC(=O)CN3CCN(CC(=O)O)CCN(CC(=O)O)CCN(CC(=O)O)CC3)C[C@@H]2C(=O)NCCn2cc(C34CC(C(=O)Nc5nnc(S(N)(=O)=O)s5)(C3)C4)nn2)CC1)(c1ccc(O)cc1)c1ccc(O)cc1.[Lu+3] [Compound 129.2]
Kd (human CA-IX; [1]): < 1 nM
Kd (human CA-XII; [2]): > 10 nM

SMILES: CC(C)(C)c1ccc(CC(=O)N[C@@H](CC(=O)N[C@@H](CC(=O)N2CCN(C(=O)CN3CCN(CC(=O)O)CCN(CC(=O)O)CCN(CC(=O)O)CC3)C[C@H]2C(=O)NCCn2cc(C34CC(C(=O)Nc5nnc(S(N)(=O)=O)s5)(C3)C4)nn2)C(=O)O)C(=O)O)cc1.[Lu+3] [Compound 109.27]
Kd (human CA-IX; [1]): 1 to 2.5 nM
Kd (human CA-XII; [2]): 2.5 to 10 nM

SMILES: CC[C@H]1CN(CC(=O)O)[C@@H](CC)CN(CC(=O)N2CCN(C(=O)C[C@H](NC(=O)C[C@H](NC(=O)CCC(C)(c3ccc(O)cc3)c3ccc(O)cc3)C(=O)O)C(=O)O)[C@H](C(=O)NCCn3cc(C45CC(C(=O)Nc6nnc(S(N)(=O)=O)s6)(C4)C5)nn3)C2)[C@@H](CC)CN(CC(=O)O)[C@@H](CC)CN1CC(=O)O.[Lu+3] [Compound 128]
Kd (human CA-IX; [1]): < 1 nM
Kd (human CA-XII; [2]): > 10 nM

Kd (human CA-IX; Chelated Metal: None; SPR, 25° C., pH 7.4; read-out: CAIX KD): < 1 nM
Ratio (CAXII/CAIX) (human CA-IX; KD ratio CAXII/CAIX; Chelated Metal: None): **** (50 < ****)
Kd (human CA-XII; Chelated Metal: None, 25° C., pH 7.4, read-out: CAXII KD): > 10 nM
SMILES: CC(CCCC(=O)N1CCC(C(N)=O)(C(=O)NCC(=O)N2CCN(C(=O)CCOCCOCCCC(=O)CN3CCN(CC(=O)O)CCN(CC(=O)O)CCN(CC(=O)O)CC3)C[C@H]2C(=O)NCCn2cc(C34CC(C(=O)Nc5nnc(S(N)(=O)=O)s5)(C3)C4)nn2)CC1)(c1ccc(O)cc1)c1ccc(O)cc1 [Compound 129.4]

SMILES: CC1(C)CN(C(=O)CCCC(C)(c2ccc(O)cc2)c2ccc(O)cc2)[C@H](C(=O)N[C@@H](CC(=O)N2CCN(C(=O)CN3CCN(CC(=O)O)CCN(CC(=O)O)CCN(CC(=O)O)CC3)C[C@@H]2C(=O)NCCn2cc(C34CC(C(=O)Nc5nnc(S(N)(=O)=O)s5)(C3)C4)nn2)C(=O)O)CO1.[Lu+3] [Compound 107.32]
Kd (human CA-IX; [1]): < 1 nM
Kd (human CA-XII; [2]): > 10 nM

SMILES: CC(CCC(=O)N[C@@H](CC(=O)N[C@@H](CC(=O)N[C@@H](CCCCn1cc(C23CCC(C(=O)Nc4nnc(S(N)(=O)=O)s4)(CC2)C3)nn1)C(=O)N1CC2(CN(C(=O)CN3CCN(CC(=O)O)CCN(CC(=O)O)CCN(CC(=O)O)CC3)C2)C1)C(=O)O)C(=O)O)(c1ccc(O)cc1)c1ccc(O)cc1.[Lu+3] [Compound 100.10]
Kd (human CA-IX; [1]): < 1 nM
Kd (human CA-XII; [2]): < 1 nM

SMILES: CC(CCC(=O)N[C@@H](CC(=O)N[C@@H](CC(=O)N[C@@H](CCCCn1cc(C23CCC(C(=O)Nc4nnc(S(N)(=O)=O)s4)(CC2)C3)nn1)C(=O)N1CC(NC(=O)CN2CCN(CC(=O)O)CCN(CC(=O)O)CCN(CC(=O)O)CC2)C1)C(=O)O)C(=O)O)(c1ccc(O)cc1)c1ccc(O)cc1.[Lu+3] [Compound 100.11]
Kd (human CA-IX; [1]): < 1 nM
Kd (human CA-XII; [2]): < 1 nM

SMILES: CC(CCCC(=O)N1CCC(C(N)=O)(C(=O)NCC(=O)N2CCN(C(=O)CN3CCN(CC(=O)O)CCN(CC(=O)O)CCN(CC(=O)O)CC3)C[C@H]2C(=O)NCCn2cc(C34CC(C(=O)Nc5nnc(S(N)(=O)=O)s5)(C3)C4)nn2)CC1)(c1ccc(O)cc1)c1ccc(O)cc1.[Lu+3] [Compound 107]
Kd (human CA-IX; [1]): < 1 nM
Kd (human CA-XII; [2]): > 10 nM

SMILES: CC(CCC(=O)N1CCC[C@H]1C(=O)N[C@@H](CC(=O)N1CCN(C(=O)CN2CCN(CC(=O)O)CCN(CC(=O)O)CCN(CC(=O)O)CC2)C[C@@H]1C(=O)NCCn1cc(C23CC(C(=O)Nc4nnc(S(N)(=O)=O)s4)(C2)C3)nn1)C(=O)O)(c1ccc(O)cc1)c1ccc(O)cc1.[Lu+3] [Compound 108]
Kd (human CA-IX; [3]): 1 to 2.5 nM
Kd (human CA-XII; [4]): > 10 nM

SMILES: CC(CCCC(=O)N1CCC(C(N)=O)(C(=O)NCC(=O)N2CCN(C(=O)CN3CCN(C(=O)CN4CCN(CC(=O)O)CCN(CC(=O)O)CCN(CC(=O)O)CC4)CC3)C[C@@H]2C(=O)NCCn2cc(C34CC(C(=O)Nc5nnc(S(N)(=O)=O)s5)(C3)C4)nn2)CC1)(c1ccc(O)cc1)c1ccc(O)cc1.[Lu+3] [Compound 129.3]
Kd (human CA-IX; [1]): < 1 nM
Kd (human CA-XII; [2]): > 10 nM

SMILES: CC(CCC(=O)N[C@@H](CC(=O)N[C@@H](CC(=O)N1CCN(C(=O)CN2CCN(CC(=O)O)CCN(CC(=O)O)CCN(CC(=O)O)CC2)CC1CCCCn1cc(CCCC(=O)Nc2nnc(S(N)(=O)=O)s2)nn1)C(=O)O)C(=O)O)(c1ccc(O)cc1)c1ccc(O)cc1.[Lu+3] (stereo partly drawn) [Compound 104]
Kd (human CA-IX; [3]): 1 to 2.5 nM
Kd (human CA-XII; [4]): 2.5 to 10 nM

SMILES: CC(CCC(=O)N[C@@H](CCC(=O)N1CCN(C(=O)CN2CCN(CC(=O)O)CCN(CC(=O)O)CCN(CC(=O)O)CC2)C[C@@H]1C(=O)NCCn1cc(C23CC(C(=O)Nc4nnc(S(N)(=O)=O)s4)(C2)C3)nn1)C(=O)O)(c1ccc(O)cc1)c1ccc(O)cc1.[Lu+3] [Compound 107.11]
Kd (human CA-IX; [1]): < 1 nM
Kd (human CA-XII; [2]): > 10 nM

SMILES: CC(CCCC(=O)N1CCOC[C@H]1C(=O)N[C@@H](CC(=O)N1CCN(C(=O)CN2CCN(CC(=O)O)CCN(CC(=O)O)CCN(CC(=O)O)CC2)C[C@H]1C(=O)NCCn1cc(C23CC(c4cn5nc(S(N)(=O)=O)sc5n4)(C2)C3)nn1)C(=O)O)(c1ccc(O)cc1)c1ccc(O)cc1.[Lu+3] [Compound 107.48]
Kd (human CA-IX; [1]): < 1 nM
Kd (human CA-XII; [2]): 1 to 2.5 nM

SMILES: CC(CCC(=O)N[C@@H](CC(=O)N[C@@H](CC(=O)N[C@@H](CCCCn1cc(C23CCC(C(=O)Nc4nnc(S(N)(=O)=O)s4)(CC2)C3)nn1)C(=O)NCCOCCNC(=O)CCC(C(=O)O)N1CCN(CC(=O)O)CCN(CC(=O)O)CCN(CC(=O)O)CC1)C(=O)O)C(=O)O)(c1ccc(O)cc1)c1ccc(O)cc1.[Lu+3] (stereo partly drawn) [Compound 100.15]
Kd (human CA-IX; [1]): < 1 nM
Kd (human CA-XII; [2]): < 1 nM

SMILES: NS(=O)(=O)c1nnc(NC(=O)C23CCC(c4cn(CCNC(=O)[C@@H]5CN(C(=O)CN6CCN(CC(=O)O)CCN(CC(=O)O)CCN(CC(=O)O)CC6)CCN5C(=O)CC[C@H](NC(=O)C[C@H](NC(=O)c5ccc(C6CCCCC6)cc5)C(=O)O)C(=O)O)nn4)(CC2)CC3)s1.[Lu+3] [Compound 109.55]
Kd (human CA-IX; [1]): < 1 nM
Kd (human CA-XII; [2]): < 1 nM

SMILES: CC(CCCC(=O)N1CCC(C(N)=O)(C(=O)NCC(=O)NC2(C(=O)NCCn3nnc(C45CC(C(=O)Nc6nnc(S(N)(=O)=O)s6)(C4)C5)c3C(=O)O)CCN(C(=O)CN3CCN(CC(=O)O)CCN(CC(=O)O)CCN(CC(=O)O)CC3)CC2)CC1)(c1ccc(O)cc1)c1ccc(O)cc1.[Lu+3] [Compound 135]
Kd (human CA-IX; [3]): < 1 nM
Kd (human CA-XII; [4]): > 10 nM

SMILES: Cc1c(C(F)(F)F)n[nH]c1C(=O)N[C@@H](CC(=O)N[C@@H](CCC(=O)N1CCN(C(=O)CN2CCN(CC(=O)O)CCN(CC(=O)O)CCN(CC(=O)O)CC2)C[C@H]1C(=O)NCCn1cc(C23CCC(C(=O)Nc4nnc(S(N)(=O)=O)s4)(CC2)CC3)nn1)C(=O)O)C(=O)O.[Lu+3] [Compound 109.49]
Kd (human CA-IX; [1]): < 1 nM
Kd (human CA-XII; [2]): < 1 nM

SMILES: NS(=O)(=O)c1nnc(NC(=O)C23CC(c4cn(CCNC(=O)[C@@H]5CN(C(=O)CN6CCN(CC(=O)O)CCN(CC(=O)O)CCN(CC(=O)O)CC6)CCN5C(=O)C[C@H](NC(=O)C[C@H](NC(=O)CCCc5ccc(Cl)cc5)C(=O)O)C(=O)O)nn4)(C2)C3)s1.[Lu+3] [Compound 109.37]
Kd (human CA-IX; [1]): < 1 nM
Kd (human CA-XII; [2]): 2.5 to 10 nM

SMILES: NS(=O)(=O)c1nnc(NC(=O)C23CC(c4cn(CCNC(=O)[C@@H]5CN(C(=O)CN6CCN(CC(=O)O)CCN(CC(=O)O)CCN(CC(=O)O)CC6)CCN5C(=O)C[C@H](Nc5ncc(C(=O)NCc6coc(C(F)(F)F)n6)cn5)C(=O)O)nn4)(C2)C3)s1.[Lu+3] [Compound 111.5]
Kd (human CA-IX; [1]): 2.5 to 10 nM
Kd (human CA-XII; [2]): > 10 nM

SMILES: NS(=O)(=O)c1nnc(NC(=O)C23CC(c4cn(CCNC(=O)[C@@H]5CN(C(=O)CN6CCN(CC(=O)O)CCN(CC(=O)O)CCN(CC(=O)O)CC6)CCN5C(=O)C[C@H](Nc5ncc(C(=O)NCCc6ccc(C(F)(F)F)cc6)cn5)C(=O)O)nn4)(C2)C3)s1.[Lu+3] [Compound 111.7]
Kd (human CA-IX; [1]): 2.5 to 10 nM
Kd (human CA-XII; [2]): > 10 nM

SMILES: NS(=O)(=O)c1nnc(NC(=O)C23CC(c4cn(CCNC(=O)[C@@H]5CN(C(=O)CN6CCN(CC(=O)O)CCN(CC(=O)O)CCN(CC(=O)O)CC6)CCN5C(=O)C[C@H](NC(=O)C[C@H](NC(=O)C5CC6(C5)CC(F)(F)C6)C(=O)O)C(=O)O)nn4)(C2)C3)s1.[Lu+3] [Compound 109.61]
Kd (human CA-IX; [1]): 1 to 2.5 nM
Kd (human CA-XII; [2]): 2.5 to 10 nM
